From US10294272B2, “Peptides with antagonistic activities against natural CXCR4” (Pharis Biotec GmbH, priority 2013, dated 2019)
Positions of bridges follow the written chain, without caps; N, C: chain ends. Residues, ends and D or L forms follow the SMILES beside them. Chains are numbered I, II in the order given. No end group written: not given here.

test system: X4 tropic HIV-1 NL4-3; conditions: blocking X4 tropic HIV-1 NL4-3 infection
Protocol: Antiviral screening was performed using the X4 HIV-1 NL4-3 molecular clone.
HIV-1, HIV-2 and SIV molecular clones differing in coreceptor tropism were generated by transient transfection of 293T cells with proviral DNA by the calcium phosphate method (CalPhos™ Mammalian Transfection Kit, Clon-tech). After overnight incubation, the transfection mixture was replaced by DMEM medium supplemented with 10% FCS, and virus stocks were harvested 48 hrs post-transfection. Subsequently, the culture supernatant was centrifuged for 5 min at 3000 rpm to remove cell debris. The resulting virus stock was quantified by p24 (HIV) or p27 (SIV) antigen ELISA. Virus stocks were either used immediately or stored in aliquots at −80° C.
TZM-bl reporter cells containing the LacZ reporter gene under the control of the HIV-1 promoter were seeded in 96-well F-bottom microtiter plates (Greiner Bio-One). On the following day, the cells were preincubated with various dilutions of the peptide of SEQ ID NO 16 or its derivatives for 1 hour and subsequently infected with HIV-1, HIV-2, and SIV. Infection rates were determined after 2 days using the one-step Tropix Gal-Screen Kit, as recommended by the manufacturer.

Point of comparison: “LVRYTKKVPQVST [Derivative 408-420, LVRYTKKVPQVST]”, IC50 15300 nM. Against it:
- IVRWTCKVPQVS [408I-419 WCO2, IVRWTCKVPQVS] — 7.3-fold lower, 2100 nM
- CC[C@H](C)[C@H](N)C(=O)N[C@H](C(=O)N[C@@H](CCCNC(=N)N)C(=O)N[C@@H](Cc1c[nH]c2ccccc12)C(=O)N[C@@H](CO)C(=O)N[C@@H](CCCCN)C(=O)N[C@@H](CCCCN)C(=O)N[C@H](C(=O)N1CCC[C@H]1C(=O)N[C@@H](CSSC[C@H](NC(=O)[C@@H]1CCCN1C(=O)[C@@H](NC(=O)[C@H](CCCCN)NC(=O)[C@H](CCCCN)NC(=O)[C@H](CO)NC(=O)[C@H](Cc1c[nH]c2ccccc12)NC(=O)[C@H](CCCNC(=N)N)NC(=O)[C@@H](NC(=O)[C@@H](N)[C@@H](C)CC)C(C)C)C(C)C)C(=O)N[C@H](C(=O)N[C@@H](CO)C(=O)O)C(C)C)C(=O)N[C@H](C(=O)N[C@@H](CO)C(=O)O)C(C)C)C(C)C)C(C)C [408I-419 WSC02 x2, (IVRWSKKVPCVS)2] (I: H-IVRWSKKVPCVS-OH / II: H-IVRWSKKVPCVS-OH; disulfide I:10-II:10) — 130-fold lower, 120 nM
- IVRWSKKVCQVS [408I-419 WSC03, IVRWSKKVCQVS] — 10-fold lower, 1510 nM
- LVRYAKKV [408-415-T412A, LVRYAKKV] — within 1.5-fold, 11200 nM
- LVRYTKKVPQVSTP [Derivative 408-421, LVRYTKKVPQVSTP] — within 1.5-fold, 14000 nM
- IVRYSKKVPQVS [408I-419 T412S, IVRYSKKVPQVS] — 7.3-fold lower, 2090 nM
- CC[C@H](C)[C@H](N)C(=O)N[C@H](C(=O)N[C@@H](CCCNC(=N)N)C(=O)N[C@@H](Cc1c[nH]c2ccccc12)C(=O)N[C@@H](CSSC[C@H](NC(=O)[C@H](Cc1c[nH]c2ccccc12)NC(=O)[C@H](CCCNC(=N)N)NC(=O)[C@@H](NC(=O)[C@@H](N)[C@@H](C)CC)C(C)C)C(=O)N[C@@H](CCCCN)C(=O)N[C@@H](CCCCN)C(=O)N[C@H](C(=O)N1CCC[C@H]1C(=O)N[C@@H](CCC(N)=O)C(=O)N[C@H](C(=O)N[C@@H](CO)C(=O)O)C(C)C)C(C)C)C(=O)N[C@@H](CCCCN)C(=O)N[C@@H](CCCCN)C(=O)N[C@H](C(=O)N1CCC[C@H]1C(=O)N[C@@H](CCC(N)=O)C(=O)N[C@H](C(=O)N[C@@H](CO)C(=O)O)C(C)C)C(C)C)C(C)C [408I-419 WC03 x2, (IVRWCKKVPQVS)2] (I: H-IVRWCKKVPQVS-OH / II: H-IVRWCKKVPQVS-OH; disulfide I:5-II:5; N-terminus and C-terminus assumed) — 26-fold lower, 600 nM
- CC[C@H](C)[C@H](N)C(=O)N[C@H](C(=O)N[C@@H](CCCNC(=N)N)C(=O)N[C@@H](Cc1c[nH]c2ccccc12)C(=O)N[C@H](C(=O)N[C@@H](CCCCN)C(=O)N[C@@H](CCCCN)C(=O)N[C@H](C(=O)N1CCC[C@H]1C(=O)N[C@@H](CCC(N)=O)C(=O)N[C@H](C(=O)N[C@@H](CSSC[C@H](NC(=O)[C@@H](NC(=O)[C@H](CCC(N)=O)NC(=O)[C@@H]1CCCN1C(=O)[C@@H](NC(=O)[C@H](CCCCN)NC(=O)[C@H](CCCCN)NC(=O)[C@@H](NC(=O)[C@H](Cc1c[nH]c2ccccc12)NC(=O)[C@H](CCCNC(=N)N)NC(=O)[C@@H](NC(=O)[C@@H](N)[C@@H](C)CC)C(C)C)[C@@H](C)O)C(C)C)C(C)C)C(=O)O)C(=O)O)C(C)C)C(C)C)[C@@H](C)O)C(C)C [408I-419 WC01_x2, (IVRWTKKVPQVC)2] (I: H-IVRWTKKVPQVC-OH / II: H-IVRWTKKVPQVC-OH; disulfide I:12-II:12; N-terminus and C-terminus assumed) — 38-fold lower, 400 nM
- IVRWSKKVPCVS [408I-419 WSC02, IVRWSKKVPCVS] — 49-fold lower, 310 nM
- IVKYTKKVPQVS [408I-419 R410K, IVKYTKKVPQVS] — higher, > 100000 nM
- IVRYTKCVPQVS [408I-419 K414C, IVRYTKCVPQVS] — 2.6-fold lower, 5870 nM
- IVRYTKKVPQCS [408I-419 V418C, IVRYTKKVPQCS] — 4.1-fold lower, 3690 nM
- IVRWSKKVPQCS [408I-419 WSC01, IVRWSKKVPQCS] — 18-fold lower, 870 nM
- LVRYTKKVPQ [Derivative 408-417, LVRYTKKVPQ] — within 1.5-fold, 19800 nM
- LVRYTKKVPQVS [Derivative 408-419, LVRYTKKVPQVS] — 2.8-fold lower, 5490 nM
- IVRFTKKVPQVS [408I-419 Y411F, IVRFTKKVPQVS] — 3.9-fold lower, 3890 nM
- IVRWTKKVPQVC [408I-419 WC01, IVRWTKKVPQVC] — 9.3-fold lower, 1650 nM
- LARYTKKV [408-415-V409A, LARYTKKV] — 2.2-fold higher, 32900 nM
- CC[C@H](C)[C@H](N)C(=O)N[C@H](C(=O)N[C@@H](CCCNC(=N)N)C(=O)N[C@@H](Cc1ccc(O)cc1)C(=O)N[C@H](C(=O)N[C@@H](CCCCN)C(=O)N[C@@H](CSSC[C@H](NC(=O)[C@H](CCCCN)NC(=O)[C@@H](NC(=O)[C@H](Cc1ccc(O)cc1)NC(=O)[C@H](CCCNC(=N)N)NC(=O)[C@@H](NC(=O)[C@@H](N)[C@@H](C)CC)C(C)C)[C@@H](C)O)C(=O)N[C@H](C(=O)N1CCC[C@H]1C(=O)N[C@@H](CCC(N)=O)C(=O)N[C@H](C(=O)N[C@@H](CO)C(=O)O)C(C)C)C(C)C)C(=O)N[C@H](C(=O)N1CCC[C@H]1C(=O)N[C@@H](CCC(N)=O)C(=O)N[C@H](C(=O)N[C@@H](CO)C(=O)O)C(C)C)C(C)C)[C@@H](C)O)C(C)C [408I-419 K414C x2, (IVRYTKCVPQVS)2] (I: H-IVRYTKCVPQVS-OH / II: H-IVRYTKCVPQVS-OH; disulfide I:7-II:7; N-terminus and C-terminus assumed) — 15-fold lower, 1050 nM
- IVHYTKKVPQVS [408I-419 R410H, IVHYTKKVPQVS] — higher, > 100000 nM
- LVRYTKKVPQVSTPT [Derivative 408-422, LVRYTKKVPQVSTPT] — within 1.5-fold, 13400 nM
- CC[C@H](C)[C@H](N)C(=O)N[C@H](C(=O)N[C@@H](CCCNC(=N)N)C(=O)N[C@@H](Cc1ccc(O)cc1)C(=O)N[C@H](C(=O)N[C@@H](CCCCN)C(=O)N[C@@H](CCCCN)C(=O)N[C@H](C(=O)N1CCC[C@H]1C(=O)N[C@@H](CCC(N)=O)C(=O)N[C@@H](CSSC[C@H](NC(=O)[C@H](CCC(N)=O)NC(=O)[C@@H]1CCCN1C(=O)[C@@H](NC(=O)[C@H](CCCCN)NC(=O)[C@H](CCCCN)NC(=O)[C@@H](NC(=O)[C@H](Cc1ccc(O)cc1)NC(=O)[C@H](CCCNC(=N)N)NC(=O)[C@@H](NC(=O)[C@@H](N)[C@@H](C)CC)C(C)C)[C@@H](C)O)C(C)C)C(=O)N[C@@H](CO)C(=O)O)C(=O)N[C@@H](CO)C(=O)O)C(C)C)[C@@H](C)O)C(C)C [408I-419 V418C x2, (IVRYTKKVPQCS)2] (I: H-IVRYTKKVPQCS-OH / II: H-IVRYTKKVPQCS-OH; disulfide I:11-II:11; N-terminus and C-terminus assumed) — 33-fold lower, 460 nM
- IVRSTKKVPQVS [408I-419 Y411S, IVRSTKKVPQVS] — higher, > 100000 nM
- IVRWTKKVPQVS [408I-419 Y411W, IVRWTKKVPQVS] — 9.9-fold lower, 1540 nM
- CC[C@H](C)[C@H](N)C(=O)N[C@H](C(=O)N[C@@H](CCCNC(=N)N)C(=O)N[C@@H](Cc1ccc(O)cc1)C(=O)N[C@@H](CO)C(=O)N[C@@H](CCCCN)C(=O)N[C@@H](CCCCN)C(=O)N[C@H](C(=O)N1CCC[C@H]1C(=O)N[C@@H](CCC(N)=O)C(=O)N[C@@H](CSSC[C@H](NC(=O)[C@H](CCC(N)=O)NC(=O)[C@@H]1CCCN1C(=O)[C@@H](NC(=O)[C@H](CCCCN)NC(=O)[C@H](CCCCN)NC(=O)[C@H](CO)NC(=O)[C@H](Cc1ccc(O)cc1)NC(=O)[C@H](CCCNC(=N)N)NC(=O)[C@@H](NC(=O)[C@@H](N)[C@@H](C)CC)C(C)C)C(C)C)C(=O)O)C(=O)O)C(C)C)C(C)C [408I-418 SC x2, (IVRYSKKVPQC)2] (I: H-IVRYSKKVPQC-OH / II: H-IVRYSKKVPQC-OH; disulfide I:11-II:11; N-terminus and C-terminus assumed) — 39-fold lower, 390 nM
- CC[C@H](C)[C@H](N)C(=O)N[C@H](C(=O)N[C@@H](CCCNC(=N)N)C(=O)N[C@@H](Cc1c[nH]c2ccccc12)C(=O)N[C@@H](CO)C(=O)N[C@@H](CCCCN)C(=O)N[C@@H](CCCCN)C(=O)N[C@H](C(=O)N1CCC[C@H]1C(=O)N[C@@H](CCC(N)=O)C(=O)N[C@@H](CSSC[C@H](NC(=O)[C@H](CCC(N)=O)NC(=O)[C@@H]1CCCN1C(=O)[C@@H](NC(=O)[C@H](CCCCN)NC(=O)[C@H](CCCCN)NC(=O)[C@H](CO)NC(=O)[C@H](Cc1c[nH]c2ccccc12)NC(=O)[C@H](CCCNC(=N)N)NC(=O)[C@@H](NC(=O)[C@@H](N)[C@@H](C)CC)C(C)C)C(C)C)C(=O)N[C@@H](CO)C(=O)O)C(=O)N[C@@H](CO)C(=O)O)C(C)C)C(C)C [408I-419 WSC01 x2, (IVRWSKKVPQCS)2] (I: H-IVRWSKKVPQCS-OH / II: H-IVRWSKKVPQCS-OH; disulfide I:11-II:11; N-terminus and C-terminus assumed) — 85-fold lower, 180 nM
- IVRYTKKVPQVS [Derivative 408I-419, IVRYTKKVPQVS] — 6.2-fold lower, 2480 nM
- IVRYSKKVPQC [408I-418 SC, IVRYSKKVPQC] — 5.2-fold lower, 2940 nM
- IVRWCKKVPQVS [408I-419 WC03, IVRWCKKVPQVS] — 8.4-fold lower, 1820 nM
- LVRYTKKVPQV [Derivative 408-418, LVRYTKKVPQV] — 1.8-fold higher, 26800 nM
- LVRYTKKV [Derivative 408-415, LVRYTKKV] — 1.7-fold higher, 25700 nM
